How the values were obtained:
[1] = species: Mus musculus; test: The tumor growth value was reported as ratio of surviving days of mice treated with anticancer drug to surviving days of control mice; assay type: functional
[2] = system: HCT-116; test: Compound was tested in vitro for cytotoxicity against HCT116, human colon cancer cells (taxol-sensitive) at a drug concentration producing 50% inhibition of colony formation; details: read-out: ID50 (the source's name)
[3] = system: HCT-116/VM46; test: Compound was tested in vitro for cytotoxicity against VM46 subline of HCT116 (taxol-resistant) at a drug concentration producing 50% inhibition of colony formation; details: Homo sapiens, read-out: ID50 (the source's name)
[4] = system: NCI/ADR-RES; test: Compound was tested in vitro for cytotoxicity against MCF-7ADR, human breast cancer cells (taxol-resistant) at a drug concentration producing 50% inhibition of colony formation; assay type: functional; details: read-out: ID50 (the source's name)
[5] = system: Mus musculus; test: Compound was tested in vivo for antitumor activity, reported as non toxic dose (NTD) in mice injected intraperitoneally with drug
[6] = system: PC-3; test: Compound was tested in vitro for cytotoxicity against PC-3, human prostate cancer cells (taxol-sensitive) at a drug concentration producing 50% inhibition of colony formation; assay type: functional; details: read-out: ID50 (the source's name)
[7] = system: Mus musculus; test: Compound was tested in vivo for antitumor activity, reported as maximum tolerated dose (MTD) in mice injected intraperitoneally with drug

| SMILES | T/C [1] | IC50 [2] | IC50 [3] | IC50 [4] | NTD [5] | IC50 [6] | MTD [7] |
| --- | --- | --- | --- | --- | --- | --- | --- |
| CC[C@@]1(OC(=O)CCOc2ccccc2)C(=O)OCc2c1cc1n(c2=O)Cc2cc3ccccc3nc2-1 | 133% | 8 nM | 7 nM | 28 nM | 150 mg/kg |  |  |
| CC[C@@]1(OC(=O)CO[C@@H]2C[C@H](C)CC[C@H]2C(C)C)C(=O)OCc2c1cc1n(c2=O)Cc2cc3ccccc3nc2-1 | 200% | 3.6 nM | 2.5 nM | 7.2 nM | 100 mg/kg | 6.2 nM |  |
| CC[C@@]1(OC(=O)COc2ccc3c(C)c(Cl)c(=O)oc3c2)C(=O)OCc2c1cc1n(c2=O)Cc2cc3ccccc3nc2-1 | 200% | 3.5 nM | 0.7 nM | 5.2 nM | 75 mg/kg | 3 nM |  |
| CC[C@@]1(OC(=O)COc2ccc([N+](=O)[O-])cc2)C(=O)OCc2c1cc1n(c2=O)Cc2cc3ccccc3nc2-1 | 250% | 3.3 nM | 3 nM | 7 nM | 100 mg/kg | 4.8 nM |  |
| CC(=O)O[C@H]1C(=O)[C@@]2(C)[C@H]([C@H](OC(=O)c3ccccc3)[C@]3(O)C[C@H](OC(=O)[C@H](O)[C@@H](NC(=O)c4ccccc4)c4ccccc4)C(C)=C1C3(C)C)[C@]1(OC(C)=O)CO[C@@H]1C[C@@H]2O [PACLITAXEL] | 150% |  | > 50 nM | > 10000 nM |  | 4 nM | 40.6 mg/kg |
| CC[C@@]1(OC(=O)CCCCOc2ccc(F)cc2Br)C(=O)OCc2c1cc1n(c2=O)Cc2cc3ccccc3nc2-1 |  | > 100 nM | 94 nM | > 100 nM | 150 mg/kg |  |  |
| CC[C@@]1(OC(=O)COc2ccc3ccccc3c2)C(=O)OCc2c1cc1n(c2=O)Cc2cc3ccccc3nc2-1 | 117% | 3 nM | 1.8 nM | 4.1 nM | 150 mg/kg | 3.9 nM |  |
| CC[C@@]1(O)C(=O)OCc2c1cc1n(c2=O)Cc2cc3ccccc3nc2-1 [CAMPTOTHECIN] | 183% | 2.8 nM | 2.4 nM | 3.9 nM |  | 3.8 nM | 12 mg/kg |
| CC[C@@]1(OC(=O)COc2ccc(Br)cc2)C(=O)OCc2c1cc1n(c2=O)Cc2cc3ccccc3nc2-1 | 300% | 3 nM | 1.9 nM | 5.5 nM | 150 mg/kg | 3.2 nM |  |
| CC[C@@]1(OC(=O)COc2ccc3c(c2)OCO3)C(=O)OCc2c1cc1n(c2=O)Cc2cc3ccccc3nc2-1 | 200% | 3.1 nM | 2.4 nM | 5 nM | 45 mg/kg | 4.6 nM |  |
| CC[C@@]1(OC(=O)COc2ccc(Cl)cc2C)C(=O)OCc2c1cc1n(c2=O)Cc2cc3ccccc3nc2-1 | 217% | 2.7 nM | 0.9 nM | 4.3 nM | 150 mg/kg | 3.5 nM |  |
| CC[C@@]1(OC(=O)CCCOc2ccc(Cl)cc2Cl)C(=O)OCc2c1cc1n(c2=O)Cc2cc3ccccc3nc2-1 | 250% | 39 nM | 27 nM | 89 nM | 100 mg/kg |  |  |
| CCc1c2c(nc3ccc(OC(=O)N4CCC(N5CCCCC5)CC4)cc13)-c1cc3c(c(=O)n1C2)COC(=O)[C@]3(O)CC [IRINOTECAN] | 217% | 540 nM | 220 nM | > 500 nM |  |  | 200 mg/kg |
